IC50 data for 25 compounds are collected here from patent US20100168102A9, “Amide Derivatives as Kinase Inhibitors” (Devgen NV, priority 2005, published 2010).

One assay concerns the target T1, PKC epsilon (Homo sapiens, UniProt Q02156).
T1 construct: purchased Invitrogen P2282
T1 sequence (Q02156 1-737): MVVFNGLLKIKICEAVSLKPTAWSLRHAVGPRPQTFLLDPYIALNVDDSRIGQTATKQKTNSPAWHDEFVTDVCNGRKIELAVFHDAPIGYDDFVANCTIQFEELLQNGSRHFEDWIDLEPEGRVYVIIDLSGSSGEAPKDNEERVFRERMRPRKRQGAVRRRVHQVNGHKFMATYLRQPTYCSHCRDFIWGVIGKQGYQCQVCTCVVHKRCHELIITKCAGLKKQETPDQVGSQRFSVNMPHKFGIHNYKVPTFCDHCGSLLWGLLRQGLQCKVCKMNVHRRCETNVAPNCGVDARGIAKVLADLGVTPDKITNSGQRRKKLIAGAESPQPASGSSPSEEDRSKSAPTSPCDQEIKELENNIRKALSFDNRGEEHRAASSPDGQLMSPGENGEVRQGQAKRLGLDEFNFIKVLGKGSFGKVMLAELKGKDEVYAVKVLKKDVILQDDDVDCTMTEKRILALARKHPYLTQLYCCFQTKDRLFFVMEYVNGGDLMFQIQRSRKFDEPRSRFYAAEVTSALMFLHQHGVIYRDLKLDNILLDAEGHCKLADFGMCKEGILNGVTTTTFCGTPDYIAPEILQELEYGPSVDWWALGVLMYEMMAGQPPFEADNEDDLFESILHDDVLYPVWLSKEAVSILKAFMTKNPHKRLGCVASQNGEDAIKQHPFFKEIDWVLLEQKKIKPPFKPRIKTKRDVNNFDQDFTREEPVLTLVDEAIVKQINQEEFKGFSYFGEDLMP
Put plainly: Biochemical assay for PKC epsilon (fluorescence polarization, Protein Kinase C Assay Kit, Red). Conditions: read-out: IC50 μM PKCε. Put shortly:
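PKC epsilon at 10 ng/ml final was preincubated 30 min at room temperature with compound in HEPES pH 7.4 with DTT and Triton X-100. ATP/protein substrate was then added in buffer with MgCl2 and CaCl2 for 80 min. The reaction was stopped with EDTA, phosphorylation was detected by fluorescence polarization with rhodamine tracer and anti-phosphoserine antibody, and IC50 values came from curve fits.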
(In fluorescence polarisation assays a small probe gives low polarisation when free and higher when bound to something large.)

The next assay has as its target T2, human ROCKα/ROCKII mix (Homo sapiens, UniProt O75116).
T2 construct: purchased Upstate Biotechnology 14-451
Put plainly: Biochemical assay for ROCK (fluorescence polarization, ROCK IMAP Kit). The procedure:
The compounds were tested for inhibition of human ROCKα/ROCKII mix.
The inhibition assays were performed with a fluorescence polarization (FP) assay using the commercially available ROCK IMAP Kit from Molecular Devices (Product ID. No. R8093), essentially in accordance with the protocol supplied by the manufacturer. […] The enzyme mix ROCKα/ROCKII was obtained from Upstate Biotechnology (Product ID No 14-451).
In summary, the compound was screened in the wells of a 384 well plate for enzymatic inhibition with concentrations varying from 100 μM to 0.3 nM using a stepwise 3 (or 2)-fold dilution.
To perform the assay, 1 μl of a solution of the compound to be tested in DMSO (at each concentration) was added to 2 μl of a solution of the enzyme in 10 mM Tris-HCl , 10 mM MgCl2, 0.1% BSA, 0.05% NaN3, pH 7.2. The final concentration of the enzyme was 2.6 nM.
After incubating for 30 minutes at room temperature, 2 μl of a mixture of ATP and the protein substrate in 10 mM Tris-HCl, 10 mM MgCl2, 0.1% BSA, 0.05% NaN3, pH 7.2 was added. The final concentration of the ATP was 10 μM and final concentration of protein substrate was 0.2 μM.
After incubating for 60 minutes at room temperature, 12 μl of the IMAP Binding Solution (mix of the IMAP Binding Buffer A (1×) and the IMAP Binding Reagent (from the ROCK IMAP kit)) was added.
The mixture thus obtained (total volume: 17 μl) was incubated for 60 minutes at room temperature, upon which the fluorescence polarization was measured using an automated plate reader (Perkin Elmer, Model Envision 2100-0010 HTS) with FP filters: excitation filter FITC FP 480 and emission filters FITC FP P-pol 535 and FITC FP S-pol 535 (Perkin-Elmer). The results were fitted to a curve using the XL-Fit algorithm and IC50 values were calculated for each fitted curve, again using the XL-Fit algorithm.

Setting [1] is: compounds of Formula XIV, Table 3.
Setting [2] is: Table 2, compounds of Formula XIII.

Structures can show the parent of a compound that is named as a salt. Where two headings read alike, the source gives them in different places.

T2 sequence (O75116 11-552 limits assumed): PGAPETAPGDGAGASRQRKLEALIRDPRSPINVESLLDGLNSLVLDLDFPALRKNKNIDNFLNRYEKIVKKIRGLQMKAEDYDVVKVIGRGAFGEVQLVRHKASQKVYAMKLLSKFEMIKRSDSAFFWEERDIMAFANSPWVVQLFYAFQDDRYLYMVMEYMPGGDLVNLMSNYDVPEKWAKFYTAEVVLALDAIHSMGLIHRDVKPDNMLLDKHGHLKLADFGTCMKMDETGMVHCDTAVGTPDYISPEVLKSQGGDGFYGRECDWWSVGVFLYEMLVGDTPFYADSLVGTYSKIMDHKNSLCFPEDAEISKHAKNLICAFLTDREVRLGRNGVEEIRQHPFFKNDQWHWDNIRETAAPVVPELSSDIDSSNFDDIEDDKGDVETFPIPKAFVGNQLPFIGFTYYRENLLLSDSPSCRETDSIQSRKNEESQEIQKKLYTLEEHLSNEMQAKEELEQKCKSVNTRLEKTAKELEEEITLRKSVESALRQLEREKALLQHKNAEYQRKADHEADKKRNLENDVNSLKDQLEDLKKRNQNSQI

`Cc1ccccc1NC(=S)NCC(N)c1ccc(C(=O)Nc2ccncc2)cc1` (centres unmarked) [Compound 12, 4-[1-amino-2-(3-o-tolyl-thioureido)-ethyl]-N-pyridin-4-yl-benzamide]: the IC50 was 0.05 to 0.5 µM on PKC epsilon and 0.5 to 5 µM against human ROCKα/ROCKII mix.
On to `NC(CC(=O)NCCc1ccc(Cl)cc1)c1ccc(C(=O)Nc2ccncc2)cc1` (centres unmarked) [Compound 299, 4-{1-Amino-2-[2-(4-chloro-phenyl)-ethylcarbamoyl]-ethyl}-N-pyridin-4-yl-benzamide], for which the figures for the IC50 on PKC epsilon (setting [1]) and against human ROCKα/ROCKII mix (setting [1]) were 0.5 to 5 µM and 0.05 to 0.5 µM, respectively.
On to “4-(1-amino-2- cyclohexylcarbamoyl-ethyl)- N-pyridin-4-yl-benzamide [Compound 172]”, for which the IC50 at PKC epsilon (setting [1]) fell in the range of 0.5 to 5 µM; at human ROCKα/ROCKII mix (setting [1]) it was 0.05 to 0.5 µM.
Turning to `Cc1ccc(CC(=O)NCC(N)c2ccc(C(=O)Nc3ccncc3)cc2)cc1` (centres unmarked) [Compound 145, 4-{1-Amino-2-[2-(4-methyl-phenyl)-acetylamino]-ethyl}-N-pyridin-4-yl-benzamide], the IC50 on PKC epsilon (setting [2]) was in the range of 0.5 to 5 µM; at human ROCKα/ROCKII mix (setting [2]), 0.05 to 0.5 µM.
Consider `CN(CC(N)c1ccc(C(=O)Nc2ccncc2)cc1)C(=O)C1(c2ccc(F)cc2F)CC1` (centres unmarked) [Compound 481, 4-(1-Amino-2-{[1-(2,4-difluoro-phenyl)-cyclopropanecarbonyl]-methyl-amino}-ethyl)-N-pyridin-4-yl-benzamide], for which the IC50 on PKC epsilon lay within 5 to 50 µM; against human ROCKα/ROCKII mix it was 0.5 to 5 µM.
Turning to `NC(CC(=O)NCCc1ccc(Cl)cc1Cl)c1ccc(C(=O)Nc2ccncc2)cc1` (centres unmarked) [Compound 303, 4-{1-Amino-2-[2-(2,4-dichloro-phenyl)-ethylcarbamoyl]-ethyl}-N-pyridin-4-yl-benzamide], the IC50 was in the range of 0.5 to 5 µM at PKC epsilon (setting [1]) and 0.05 to 0.5 µM on human ROCKα/ROCKII mix (setting [1]).
As for `NC(c1ccc(C(=O)Nc2ccncc2)cc1)C1CCCN1C(=O)Cc1cncc(Br)c1` (centres unmarked) [Compound 543, 4-(Amino-{1-[2-(5-bromo-pyridin-3-yl)-acetyl]-pyrrolidin-2-yl}-methyl)-N-pyridin-4-yl-benzamide], the figures for the IC50 at PKC epsilon and on human ROCKα/ROCKII mix were 5 to 50 µM and 0.5 to 5 µM, respectively.
Turning to `NC(CNC(=O)Cc1ccncc1)c1ccc(C(=O)Nc2ccncc2)cc1` (centres unmarked) [Compound 151, 4-[1-Amino-2-(2-pyridin-4-yl-acetylamino)-ethyl]-N-pyridin-4-yl-benzamide], the IC50 at PKC epsilon (setting [2]) was in the range of 5 to 50 µM; against human ROCKα/ROCKII mix (setting [2]), 0.5 to 5 µM.
Regarding `NC(c1ccc(C(=O)Nc2ccncc2)cc1)C1CCCN1C(=O)C1CCc2cc(F)ccc21` (centres unmarked) [Compound 610, 4-{Amino-[1-(5-fluoro-indane-1-carbonyl)-pyrrolidin-2-yl]-methyl}-N-pyridin-4-yl-benzamide], the IC50 on PKC epsilon was 5 to 50 µM; against human ROCKα/ROCKII mix, 0.5 to 5 µM.
For `N[C@H](CNC(=O)C1(c2ccc(F)cc2)CCCC1)c1ccc(C(=O)Nc2ccncc2)cc1` [Compound 417, 4-((S)-1-Amino-2-{[1-(4-fluoro-phenyl)-cyclopentanecarbonyl]-amino}-ethyl)-N-pyridin-4-yl-benzamide dihydrochloric acid salt] the same measures were under 0.05 µM and 0.05 to 0.5 µM.
With `NC(CNC(=O)c1ccc2ncccc2c1)c1ccc(C(=O)Nc2ccncc2)cc1` (centres unmarked) [Compound 114, Quinoline-6-carboxylic acid {2-amino-2-[4-(pyridin-4-ylcarbamoyl)-phenyl]-ethyl}-amide], the values for the IC50 on PKC epsilon (setting [2]) and at human ROCKα/ROCKII mix (setting [2]) were 5 to 50 µM and 0.5 to 5 µM, respectively.
As to `CCNC(=O)CC(N)c1ccc(C(=O)Nc2ccncc2)cc1` (centres unmarked) [Compound 169], the IC50 lay within 0.5 to 5 µM at PKC epsilon (setting [1]) and 0.05 to 0.5 µM against human ROCKα/ROCKII mix (setting [1]).
Regarding `NC(c1ccc(C(=O)Nc2ccncc2)cc1)C1CCCN1C(=O)C1CCOc2ccc(Cl)cc21` (centres unmarked) [Compound 616, 4-{Amino[1-(6-chloro-chroman-4-carbonyl)-pyrrolidin-2-yl]-methyl}-N-pyridin-4-benzamide], the IC50 on PKC epsilon and on human ROCKα/ROCKII mix was 0.5 to 5 µM in each case.
In the case of `NC(CNC(=O)C1(c2ccc(Cl)cc2F)CC1)c1ccc(C(=O)Nc2ccncc2)cc1` (centres unmarked) [Compound 389, 4-(1-Amino-2-{[1-(4-chloro-2-fluoro-phenyl)-cyclopropanecarbonyl]-amino}-ethyl)-N-pyridin-4-yl-benzamide], the IC50 at PKC epsilon (setting [2]) is under 0.05 µM; on human ROCKα/ROCKII mix (setting [2]) it was 0.05 to 0.5 µM.
Regarding “4-(1-Amino-2-{[2-(4-bromo- phenyl)-acetyl]-methyl- amino}-ethyl)- N-pyridin-4-yl-benzamide [Compound 457]”, the IC50 was 5 to 50 µM at PKC epsilon and 0.5 to 5 µM on human ROCKα/ROCKII mix.
With `NC(CC(=O)NCc1ccccc1Cl)c1ccc(C(=O)Nc2ccncc2)cc1` (centres unmarked) [Compound 246, 4-[1-Amino-2-(2-chloro-benzylcarbamoyl)-ethyl]-N-pyridin-4-yl-benzamide], the IC50 at PKC epsilon (setting [1]) is 0.5 to 5 µM; against human ROCKα/ROCKII mix (setting [1]), 0.05 to 0.5 µM.
For “4-{1-Amino-2-[methyl-(2- methyl-2-thiophen-3-yl- propionyl)- amino]-ethyl}- N-pyridin-4-yl-benzamide [Compound 449]”, the IC50 at PKC epsilon lay within 5 to 50 µM; against human ROCKα/ROCKII mix, 0.5 to 5 µM.
Regarding `NC(CNC(=O)C1(c2ccccc2)CC1)c1ccc(C(=O)Nc2ccncc2)cc1` (centres unmarked) [Compound 137, 4-{1-Amino-2-[(1-phenyl-cyclopropanecarbonyl)-amino]-ethyl}-N-pyridin-4-yl-benzamide], the values for the IC50 at PKC epsilon (setting [2]) and on human ROCKα/ROCKII mix (setting [2]) were 0.05 to 0.5 µM and 0.5 to 5 µM, respectively.
As to `N#CCC(=O)NCC(N)c1ccc(C(=O)Nc2ccncc2)cc1` (centres unmarked) [Compound 54, 4-[1-Amino-2-(2-cyano-acetylamino)-ethyl]-N-pyridin-4-yl-benzamide], the values for the IC50 at PKC epsilon (setting [2]) and on human ROCKα/ROCKII mix (setting [2]) were 0.5 to 5 µM and 0.05 to 0.5 µM, respectively.
In the case of `CC(NC(=O)CC(N)c1ccc(C(=O)Nc2ccncc2)cc1)c1ccccc1` (centres unmarked) [Compound 215, 4-[1-Amino-2-(1-phenyl-ethylcarbamoyl)-ethyl]-N-pyridin-4-yl-benzamide], the IC50 was 0.5 to 5 µM at PKC epsilon (setting [1]) and 0.05 to 0.5 µM on human ROCKα/ROCKII mix (setting [1]).
For the compound `NC(c1ccc(C(=O)Nc2ccncc2)cc1)C1CCCN1C(=O)Cc1c[nH]c2ccccc12` (centres unmarked) [Compound 544, 4-{Amino-[1-(2-1H-indol-3-yl-acetyl)-pyrrolidin-2-yl]-methyl}-N-pyridin-4-yl-benzamide], the IC50 on PKC epsilon and on human ROCKα/ROCKII mix was 0.5 to 5 µM throughout.
With `CN(CC(N)c1ccc(C(=O)Nc2ccncc2)cc1)C(=O)C1CCOc2ccc(Cl)cc21` (centres unmarked) [Compound 515, 6-Chloro-chroman-4-carboxylic acid {2-amino-2-[4-(pyridin-4-ylcarbamoyl)-phenyl]-ethyl}-methyl-amide], the IC50 on PKC epsilon lay in the range of 5 to 50 µM; against human ROCKα/ROCKII mix, 0.5 to 5 µM.
In the case of `N#Cc1ccc(C(=O)NCC(N)c2ccc(C(=O)Nc3ccncc3)cc2)cc1` (centres unmarked) [Compound 95, 4-[1-amino-2-(4-cyano-benzoylamino)-ethyl]-N-pyridin-4-yl-benzamide], the IC50 on PKC epsilon (setting [2]) was 5 to 50 µM; on human ROCKα/ROCKII mix (setting [2]) it was 0.5 to 5 µM.
The like results for `COc1ccc2c(c1)CCCC2C(=O)NCC(N)c1ccc(C(=O)Nc2ccncc2)cc1` (centres unmarked) [Compound 355, 6-Methoxy-1,2,3,4-tetrahydro-naphthalene-1-carboxylic acid {2-amino-2-[4-(pyridin-4-ylcarbamoyl)-phenyl]-ethyl}-amide] were, in that order, 0.05 to 0.5 µM and 0.05 to 0.5 µM.
As to “4-[1-Amino-2-(2-ethoxy- benzylcarbamoyl)-ethyl]- N-pyridin-4-yl-benzamide [Compound 237]”, the IC50 at PKC epsilon (setting [1]) was in the range of 0.5 to 5 µM; at human ROCKα/ROCKII mix (setting [1]), 0.05 to 0.5 µM.

As a reminder, the IC50 is the concentration that inhibits the measured activity by half.
